Data on 4 compounds can be found in ChEMBL document CHEMBL1152286, “Pyrrospirones A and B, apoptosis inducers in HL-60 cells, from an endophytic fungus, Neonectria ramulariae Wollenw KS-246” (Bioorg Med Chem Lett, 2008).

The source made the active and inactive calls. No cut-off for these calls is given here.

Common to all, as to type: functional, cell-based
One experiment deals with K562. The experiment is described as follows: Cytotoxicity against human K562 cells by MTT assay. (In general: Tetrazolium dyes change colour on reduction, which living cells bring about.)
Experiment [1] deals with HL-60. The experiment is described as follows: Induction of apoptosis in human HL60 cells assessed as DNA fragmentation at 30 uM after 18 hrs by agarose-gel electrophoresis.
A further experiment concerns LNCaP. The experiment is described as follows: Cytotoxicity against human LNCAP cells by MTT assay.
The subject of experiment [2] is HL-60. The experiment is described as follows: Cytotoxicity against human HL60 cells by MTT assay.

For orientation: IC50 means the concentration needed to halve the response being measured. Turning to `CC1=C[C@H]2[C@@H]3C(=O)[C@]4(C[C@H]2O)C[C@](O)(Cc2ccc(cc2)O[C@H]2[C@H]3[C@@H]1[C@]1(C)C[C@H](C)C[C@H](C)[C@@H]21)NC4=O` [PYRROSPIRONE A], the half-maximal inhibitory concentration (IC50) with K562 came to 9.96 µM; with LNCaP, 18 µM; in the experiment with HL-60 [2], 14.9 µM. Also, the outcome in the experiment with HL-60 [1] was Active.
As for `CC1=C[C@H]2[C@@H]3C(=O)[C@]4(C[C@@H]2O)C[C@](O)(Cc2ccc(cc2)O[C@H]2[C@H]3[C@@H]1[C@]1(C)C[C@H](C)C[C@H](C)[C@@H]21)NC4=O` [PYRROSPIRONE B], the IC50 with K562 amounted to 9.27 µM; in the experiment with LNCaP it was 20.2 µM; in the experiment on HL-60 [2], 7.44 µM. For the same compound, the result in the experiment on HL-60 [1] was Active.
Turning to `C=C[C@@H]1C=C(C)[C@H]2[C@@H]3[C@H](Oc4ccc(cc4)C[C@@]4(O)C=C(C(=O)N4)C(=O)[C@@H]13)[C@@H]1[C@@H](C)C[C@@H](C)C[C@]12C` [PYRROSPIRONE C], the IC50 with K562 was 0.45 µM; with LNCaP, 0.48 µM; in the experiment with HL-60 [2] it was 0.12 µM.
For `C=C[C@@H]1C=C(C)[C@H]2[C@@H]3[C@H](Oc4ccc(cc4)C[C@@]4(O)C[C@H](C(=O)N4)C(=O)[C@@H]13)[C@@H]1[C@@H](C)C[C@@H](C)C[C@]12C` [PYRROSPIRONE D], the IC50 with K562 was determined as 8.64 µM; in the experiment on LNCaP it was 11.7 µM; with HL-60 [2], 6.92 µM.
